The values that follow are results of earlier work, collected in patent US6423719B1, “Method for treating benign prostate hyperplasia” (Upsher-Smith Laboratories, Inc., priority 1999, dated 2002).

The conditions of data set [1]: for half life (plasma / elimination) / bioavailability: in vivo.
Another data set concerns the target T1, 5α-reductase (Homo sapiens, UniProt P31213).
T1 sequence (P31213 1-254): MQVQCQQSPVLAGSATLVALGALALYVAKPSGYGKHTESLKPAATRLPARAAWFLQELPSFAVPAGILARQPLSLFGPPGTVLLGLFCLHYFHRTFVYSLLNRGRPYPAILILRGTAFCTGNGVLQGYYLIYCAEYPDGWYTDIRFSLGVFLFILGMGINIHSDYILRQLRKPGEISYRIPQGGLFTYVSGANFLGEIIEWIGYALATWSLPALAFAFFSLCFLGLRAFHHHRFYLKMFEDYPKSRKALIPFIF
The following applies: stable enzyme complex with 5α-reductase.

For data set [2] the following is noted: in vivo.

With `COc1cc2nc(N(C)CCCNC(=O)C3CCCO3)nc(N)c2cc1OC` (stereo not drawn) [Alfuzosin], in data set [1], the “half life (plasma / elimination)” value is “about 5 hours”.

For `CC(C)(C)NC(=O)[C@H]1CC[C@H]2[C@@H]3CC[C@H]4NC(=O)C=C[C@]4(C)[C@H]3CC[C@]12C` [Finasteride, N-(2-methyl-2-propyl)3-oxo-4-aza-5α-androst-1-ene-17β-carboxamide], the “turnover from the enzyme complex (t½)” value on 5α-reductase was approximately 30 days. Consider `O=C(NC1CCN(CCc2c[nH]c3ccccc23)CC1)c1ccccc1` [Indoramin], for which, in data set [1], the bioavailability entry is “less than 30%” and the “half life (plasma / elimination)” value is on record as “about 5 hours”.

For the compound `CC(COc1ccccc1)N(CCCl)Cc1ccccc1` (stereo not drawn) [Phenoxybenzamine], the half life result in data set [1] (administered intravenously) is reported as “approximately 24 hours”. For `COc1cc2nc(N3CCN(C(=O)C4CCCO4)CC3)nc(N)c2cc1OC` (stereo not drawn) [Terazosin], the water solubility entry is “more water soluble than prazoin”. Moreover, in data set [1], the bioavailability entry is “greater than 90%” and the “half life (plasma / elimination)” value was “approximately 12 hours”. As for `Cn1c(=O)c2[nH]cnc2n(C)c1=O` [theophylline], the “dose excreted unchanged in the urine” value in data set [2] is given as “about 10%”.
